Tests used:
Aromatase [1] = biological target: T1, Aromatase (Homo sapiens, UniProt P11511); assay: Inhibition of cytochrome P450 19A1 aromatase from human placental microsomes
T1 sequence (P11511 whole entry): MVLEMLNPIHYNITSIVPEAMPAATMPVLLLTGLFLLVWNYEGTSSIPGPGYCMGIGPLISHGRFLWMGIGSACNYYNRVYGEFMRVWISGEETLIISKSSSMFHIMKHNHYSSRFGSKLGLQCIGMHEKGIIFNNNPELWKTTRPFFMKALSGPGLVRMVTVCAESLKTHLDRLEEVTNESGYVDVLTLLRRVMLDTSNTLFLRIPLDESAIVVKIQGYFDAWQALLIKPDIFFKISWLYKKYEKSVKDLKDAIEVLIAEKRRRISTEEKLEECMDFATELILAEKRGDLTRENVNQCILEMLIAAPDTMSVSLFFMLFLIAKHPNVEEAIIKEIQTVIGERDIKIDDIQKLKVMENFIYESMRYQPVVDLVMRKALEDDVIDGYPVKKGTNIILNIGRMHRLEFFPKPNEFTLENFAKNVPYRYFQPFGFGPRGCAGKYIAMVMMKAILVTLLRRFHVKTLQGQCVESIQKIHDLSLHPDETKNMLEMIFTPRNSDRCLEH

Aromatase [2] = biological target: T1, Aromatase; assay: Inhibition of aromatase cytochrome P450 from human placental microsomes; 800-1000

Row | Compound | IC50 (Aromatase [1]) [µM] | IC50 (Aromatase [2]) [µM]
1 | CC12CCC3C(Cc4c5c(nn4Cc4ccc([N+](=O)[O-])cc4)C(=O)CCC53C)C1CCC2=O (configuration not stated) | 0.49 | –
2 | CC12CCC3C(Cc4c5c(nn4Cc4ccccc4)C(=O)CCC53C)C1CCC2=O (configuration not stated) | 0.245 | –
3 | CC12CCC3C(Cc4nn(C/C=C/c5ccccc5)c5c4C3(C)CCC5=O)C1CCC2=O (configuration not stated) | – | 0.8
4 | CC12CCC3C(Cc4[nH]nc5c4C3(C)CCC5=O)C1CCC2=O (configuration not stated) | 0.236 | –
5 | CC12CCC3C(Cc4nn(Cc5ccccc5)c5c4C3(C)CCC5=O)C1CCC2=O (configuration not stated) | 0.342 | –
6 | CC12CCC3C(Cc4nn(Cc5ccc([N+](=O)[O-])cc5)c5c4C3(C)CCC5=O)C1CCC2=O (configuration not stated) | 0.658 | –
7 | CC12CCC3C(Cc4c5c(nn4C/C=C/c4ccccc4)C(=O)CCC53C)C1CCC2=O (configuration not stated) | 0.95 | –

Source: ChEMBL document CHEMBL1151017, “The synthesis of N-aryl androsterone pyrazoles as aromatase inhibitors” (Bioorg Med Chem Lett, 1997)
